Data published in PubChem BioAssay (NCI).
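Step 1: Grow cells in 96-well plates. Step 2: Expose to compound for 48 hours at 5 concentrations. Step 3: Interpolate endpoints linearly; if unreached, use highest concentration. Definition used: TGI = concentration required for complete inhibition of growth.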

Experiments:
Assay in all cases: NCI tumour cell line growth inhibition, 48 h
TK-10 renal = system: TK-10 renal
PC-3 prostate = system: PC-3 prostate
SW-620 colon = system: SW-620 colon
EKVX NSCLC = system: EKVX NSCLC
IGROV1 ovarian = system: IGROV1 ovarian
HCC-2998 colon = system: HCC-2998 colon
SR leukemia = system: SR leukemia
786-0 renal = system: 786-0 renal
KM12 colon = system: KM12 colon
SK-MEL-5 melanoma = system: SK-MEL-5 melanoma
RPMI-8226 leukemia = system: RPMI-8226 leukemia
SF-539 CNS = system: SF-539 CNS
M14 melanoma = system: M14 melanoma
SN12C renal = system: SN12C renal
SNB-75 CNS = system: SNB-75 CNS
ACHN renal = system: ACHN renal
UO-31 renal = system: UO-31 renal
HS 578T breast = system: HS 578T breast
OVCAR-8 ovarian = system: OVCAR-8 ovarian
SF-268 CNS = system: SF-268 CNS
HCT-15 colon = system: HCT-15 colon
NCI-H23 lung = system: NCI-H23 lung
COLO 205 colon = system: COLO 205 colon
SF-295 CNS = system: SF-295 CNS
T-47D breast = system: T-47D breast
RXF 393 renal = system: RXF 393 renal
NCI/ADR-RES ovarian = system: NCI/ADR-RES ovarian
HT29 colon = system: HT29 colon
MDA-N = system: MDA-N
K-562 leukemia = system: K-562 leukemia
MDA-MB-231 breast = system: MDA-MB-231 breast
U251 CNS = system: U251 CNS
UACC-62 melanoma = system: UACC-62 melanoma
MALME-3M melanoma = system: MALME-3M melanoma
NCI-H460 lung = system: NCI-H460 lung
NCI-H522 lung = system: NCI-H522 lung
MOLT-4 leukemia = system: MOLT-4 leukemia
OVCAR-5 ovarian = system: OVCAR-5 ovarian
OVCAR-4 ovarian = system: OVCAR-4 ovarian
SK-OV-3 ovarian = system: SK-OV-3 ovarian
A549 NSCLC = system: A549 NSCLC
MCF7 breast = system: MCF7 breast
NCI-H226 lung = system: NCI-H226 lung
MDA-MB-435 = system: MDA-MB-435
UACC-257 melanoma = system: UACC-257 melanoma
SK-MEL-28 melanoma = system: SK-MEL-28 melanoma
HCT-116 colon = system: HCT-116 colon
CAKI-1 renal = system: CAKI-1 renal
HOP-62 NSCLC = system: HOP-62 NSCLC
SK-MEL-2 melanoma = system: SK-MEL-2 melanoma
HOP-92 NSCLC = system: HOP-92 NSCLC
LOX IMVI melanoma = system: LOX IMVI melanoma
BT-549 breast = system: BT-549 breast
SNB-19 CNS = system: SNB-19 CNS
OVCAR-3 ovarian = system: OVCAR-3 ovarian
HL-60(TB) leukemia = system: HL-60(TB) leukemia
CCRF-CEM leukemia = system: CCRF-CEM leukemia
DU-145 prostate = system: DU-145 prostate

Compound: C=CCOC(=O)C[C@H](NC(=O)[C@H](Cc1ccc(O)cc1)NCC(F)(F)F)C(=O)OCC=C
- TGI (TK-10 renal): > 100 µM
- TGI (PC-3 prostate): > 100 µM
- TGI (SW-620 colon): > 100 µM
- TGI (EKVX NSCLC): > 100 µM
- TGI (IGROV1 ovarian): > 100 µM
- TGI (HCC-2998 colon): > 100 µM
- TGI (SR leukemia): > 100 µM
- TGI (786-0 renal): > 100 µM
- TGI (KM12 colon): > 100 µM
- TGI (SK-MEL-5 melanoma): 97.5 µM
- TGI (RPMI-8226 leukemia): > 100 µM
- TGI (SF-539 CNS): > 100 µM
- TGI (M14 melanoma): > 100 µM
- TGI (SN12C renal): > 100 µM
- TGI (SNB-75 CNS): > 100 µM
- TGI (ACHN renal): > 100 µM
- TGI (UO-31 renal): > 100 µM
- TGI (HS 578T breast): > 100 µM
- TGI (OVCAR-8 ovarian): > 100 µM
- TGI (SF-268 CNS): > 100 µM
- TGI (HCT-15 colon): > 100 µM
- TGI (NCI-H23 lung): > 100 µM
- TGI (COLO 205 colon): > 100 µM
- TGI (SF-295 CNS): > 100 µM
- TGI (T-47D breast): 58.1 µM
- TGI (RXF 393 renal): > 100 µM
- TGI (NCI/ADR-RES ovarian): > 100 µM
- TGI (HT29 colon): > 100 µM
- TGI (MDA-N): > 100 µM
- TGI (K-562 leukemia): > 100 µM
- TGI (MDA-MB-231 breast): > 100 µM
- TGI (U251 CNS): > 100 µM
- TGI (UACC-62 melanoma): > 100 µM
- TGI (MALME-3M melanoma): 52.7 µM
- TGI (NCI-H460 lung): > 100 µM
- TGI (NCI-H522 lung): 68.9 µM
- TGI (MOLT-4 leukemia): 60.1 µM
- TGI (OVCAR-5 ovarian): > 100 µM
- TGI (OVCAR-4 ovarian): > 100 µM
- TGI (SK-OV-3 ovarian): > 100 µM
- TGI (A549 NSCLC): > 100 µM
- TGI (MCF7 breast): > 100 µM
- TGI (NCI-H226 lung): > 100 µM
- TGI (MDA-MB-435): > 100 µM
- TGI (UACC-257 melanoma): 44.2 µM
- TGI (SK-MEL-28 melanoma): 44.5 µM
- TGI (HCT-116 colon): > 100 µM
- TGI (CAKI-1 renal): > 100 µM
- TGI (HOP-62 NSCLC): > 100 µM
- TGI (SK-MEL-2 melanoma): 46.1 µM
- TGI (HOP-92 NSCLC): > 100 µM
- TGI (LOX IMVI melanoma): > 100 µM
- TGI (BT-549 breast): > 100 µM
- TGI (SNB-19 CNS): > 100 µM

Compound: c1ccc([Si](OCCN2CC2)(c2ccccc2)c2ccccc2)cc1
- TGI (OVCAR-3 ovarian): 31.3 µM
- TGI (TK-10 renal): 29.1 µM
- TGI (PC-3 prostate): 26.3 µM
- TGI (SW-620 colon): 27.8 µM
- TGI (EKVX NSCLC): 25.4 µM
- TGI (IGROV1 ovarian): 25.5 µM
- TGI (HCC-2998 colon): 26.4 µM
- TGI (HL-60(TB) leukemia): 50.8 µM
- TGI (786-0 renal): 27.2 µM
- TGI (CCRF-CEM leukemia): 49.5 µM
- TGI (KM12 colon): 35.2 µM
- TGI (SK-MEL-5 melanoma): 29.2 µM
- TGI (RPMI-8226 leukemia): 36.9 µM
- TGI (SF-539 CNS): 26.9 µM
- TGI (M14 melanoma): 29.3 µM
- TGI (SN12C renal): 27.3 µM
- TGI (ACHN renal): 27.9 µM
- TGI (UO-31 renal): 28.4 µM
- TGI (HS 578T breast): 24.9 µM
- TGI (OVCAR-8 ovarian): 33.1 µM
- TGI (SF-268 CNS): 23 µM
- TGI (HCT-15 colon): 21.9 µM
- TGI (NCI-H23 lung): 29 µM
- TGI (COLO 205 colon): 24.7 µM
- TGI (SF-295 CNS): 27.4 µM
- TGI (T-47D breast): 39.9 µM
- TGI (DU-145 prostate): 27.5 µM
- TGI (RXF 393 renal): 19.2 µM
- TGI (NCI/ADR-RES ovarian): 28.1 µM
- TGI (HT29 colon): 27 µM
- TGI (MDA-N): 28.1 µM
- TGI (K-562 leukemia): 26.8 µM
- TGI (MDA-MB-231 breast): 28 µM
- TGI (U251 CNS): 27 µM
- TGI (UACC-62 melanoma): 27.2 µM
- TGI (MALME-3M melanoma): 31.3 µM
- TGI (NCI-H460 lung): 25 µM
- TGI (NCI-H522 lung): 25.5 µM
- TGI (MOLT-4 leukemia): 36.3 µM
- TGI (OVCAR-5 ovarian): 27.7 µM
- TGI (OVCAR-4 ovarian): 22.7 µM
- TGI (SK-OV-3 ovarian): 27.5 µM
- TGI (A549 NSCLC): 24.1 µM
- TGI (MCF7 breast): 31.8 µM
- TGI (NCI-H226 lung): 29.8 µM
- TGI (MDA-MB-435): 26.7 µM
- TGI (UACC-257 melanoma): 33.2 µM
- TGI (HCT-116 colon): 27.7 µM
- TGI (CAKI-1 renal): 44.8 µM
- TGI (HOP-62 NSCLC): 30 µM
- TGI (SK-MEL-2 melanoma): 18.4 µM
- TGI (HOP-92 NSCLC): 18.4 µM
- TGI (LOX IMVI melanoma): 27.6 µM
- TGI (BT-549 breast): 31.5 µM
- TGI (SNB-19 CNS): 16 µM
